# Measurements from US10718028B2, “Fluorescent probes for abasic site detection” (CASE WESTERN RESERVE UIVERSITY, priority 2015, dated 2020).
# Columns and labels:
# AP DNA = test: SSB activity assay, dose-response of AP site binding probes; assay type: biochemical; conditions: 5 pmol AP DNA, FIG. 1
# Description: FIG. 1 illustrates SSB activity assay is used to compare the dose-response of AP site binding probes in 5 pmol of AP DNA. Mean and standard deviation of triplicate samples are shown for each concentration.
# The single strand break (SSB) assay was proposed as a quick, facile tool to screen AP site binding probes. Therefore, the assay was performed on novel AP site binding probes described above and the commercially available AP site binding probe, F422. […] The reduced response of F422 and DansylMX may be due in part to the compounds being fairly electron rich near the aminooxy binding moiety. This could lead to a Coulombic repulsion with the DNA phosphate backbone.
# SSB activity assays were performed on a 40-mer duplex DNA synthesized by IDT with the sequence:
# SSB Activity Assay Control Reactions
# [1] = Absorption and emission spectra of AP site binding probes in ethanol; assay type: physicochemical
# Description: NMR spectra were recorded on a Varian Mercury 300 MHz, a Varian Inova 400, and a Varian Inova 600 MHz spectrometer at room temperature, except where otherwise noted. Chemical shifts for 1H NMR were reported as 6, parts per million, and referenced to CHCl3 at 7.26 ppm or TMS at 0 ppm. Chemical shifts for ^13C NMR were reported as 6 and referenced to the center line of the CDCl3 triplet at 77.0 ppm or CH2Cl2 pentet at 54.0 ppm. Low resolution mass spectra were recorded on a ThermoScientific LCQ Advantage or a Finnigan LCQ Deca mass spectrometer. Fluorescence data were collected on a Varian Cary Eclipse fluorescence spectrophotometer in a quartz cuvette with a 1 cm pathlength or on a Tecan Infinite M200 scanner. Absorbance data were collected on a Varian Cary 50 Bio UV-Visible Spectrophotometer in a quartz cuvette with a 1 cm path length.
# To characterize the fluorescent properties, the absorption and emission spectra were collected for all final compounds.
# [2] = in EtOH; cited from earlier work
# [3] = in EtOH; cited from earlier work; remark: listed apart in the source
# Aqueous solubility = assay type: physicochemical
# [4] = system: AP sites in calf thymus DNA; test: MX and Cy7MX genomic DNA blocking assay; assay type: binding; conditions: DNA pretreated with large excess of MX (1000×)
# Description: FIG. 10 illustrates fluorescence response and MX blocking of Cy7MX. Calf thymus DNA treated with heat and acid for increments of 15 min to give a linear relative number of AP sites. AP DNA was then pretreated with MX (50 mM, +MX) or NaCl (50 mM, −MX) followed by incubation with Cy7MX (0.05 mM). Fluorescence measures show a linear response to Cy7MX when not blocked by MX.
# Calf thymus DNA was purchased from Sigma and was reconstituted overnight at 4° C. in either H2O or 500 mM MX (to eliminate basal AP sites) with gentle shaking (1.5 mL water or solution per 5 mg DNA). For samples reconstituted in MX solution, an ethanol precipitation was performed twice before heat and acid treatment (vide infra) then reconstituted in water. The DNA-water solution was aliquoted to 1.5 mL Eppendorf tubes (360 μL) and 10× Citrate buffer (1M NaCl, 100 μM monosodium phosphate, 100 μM monosodium citrate, pH 5.0) was added to a final concentration of 1×. For t=0 min samples, ice-cold 100% EtOH (1.0 mL) was added immediately and the Eppendorf tubes stored at −20° C. […]
# To 80 μL aliquots of DNA was added either 10 μL of MX (500 mM, pH 7) or vehicle control (500 mM NaCl). […] Aliquots (125 μL) of the samples were added to a black, clear-bottom 96 well plate (Corning) and analyzed with 700 nm excitation and 790 nm emission. Fluorescence was adjusted to DNA concentration.
# [5] = system: AP sites in calf thymus DNA; test: MX or ARP and Cy7MX genomic DNA competition assay; assay type: binding
# Description: Calf thymus DNA was purchased from Sigma and was reconstituted overnight at 4° C. in either H2O or 500 mM MX (to eliminate basal AP sites) with gentle shaking (1.5 mL water or solution per 5 mg DNA). For samples reconstituted in MX solution, an ethanol precipitation was performed twice before heat and acid treatment (vide infra) then reconstituted in water. The DNA-water solution was aliquoted to 1.5 mL Eppendorf tubes (360 μL) and 10× Citrate buffer (1M NaCl, 100 μM monosodium phosphate, 100 μM monosodium citrate, pH 5.0) was added to a final concentration of 1×. For t=0 min samples, ice-cold 100% EtOH (1.0 mL) was added immediately and the Eppendorf tubes stored at −20° C. Other samples were placed in a 70° C. heating block for 15-90 minutes in 15-minute increments. Samples were removed from heat, precipitated in ice-cold 100% EtOH (1.0 mL), and then chilled at −20° C. for at least 20 minutes. Samples were centrifuged at 12,000×G for 10 min at 4° C. The supernatant was discarded. The process was repeated once beginning with the addition of EtOH (1.0 mL). The DNA pellet was dissolved in 700 μL H2O or TE buffer. Aliquots of 80 μL were put in 1.5 mL Eppendorf tubes. Any samples not used immediately were stored at −80° C.
# Solutions of MX and Cy7MX were prepared in H2O varying [MX] from 0-1.9 M and maintaining at 25 μM. […] The ratios of MX:Cy7MX used in this study were: 0, 0.01, 0.1, 0.5, 1, 5, 10, 50, 100, 250, 500, 1000, 2500, 5000, 10000, 25000, 50000, and 75000. […] The following samples were prepared in triplicate: 20 μL of MX/Cy7MX solution was added to 80 μL aliquots of heat/acid treated DNA (t=45 min). Samples were incubated for 1 h at 37° C. in the dark. Ice-cold EtOH (1.0 mL) was added and the DNA was purified by EtOH precipitation three times as described in the heat/acid treatment of genomic DNA section. DNA was dissolved in 150 μL H2O. Aliquots (125 μL) of the samples were added to a black, clear-bottom 96 well plate (Corning) and analyzed with 750 nm excitation and 800 nm emission. Fluorescence was adjusted to DNA concentration.
# As before (section 2.3.2) except solutions of ARP and Cy7MX were prepared in H2O varying [ARP] from 0-75 mM and maintaining at 1 μM. The ratios of ARP: Cy7MX used in this study were: 0, 0.1, 1, 10, 100, 500, 1000, 5000, 10000, 25000, 50000, and 75000.
# DLD1 cells = test: AP site evaluation in FUDR treated DLD1 cells with Cy7MX; assay type: cell-based; conditions: 72 h continuous FUDR exposure, UDG KD cells, DNA treated in vitro with UDG
# Description: DLD1 cells (ATCC #CCL-221) were obtained from the laboratory of Sanford Markowitz at Case Western Reserve University. UDG directed shRNA clones and scrambled targeted control shRNA clones were purchased from Sigma-Aldrich. According to manufacturer's instructions from Lipofectamine 2000 (Invitrogen), HEK293 cells were transfected to produce lentiviral particles that were used to infect DLD1 cells. Forty-eight hours after transfection, DLD1 cells were diluted for passage and selected with puromycin. The UDG knockdown levels were verified by RT-PCR and Western blot analysis.
# To allow for cell proliferation, the following approximate numbers of cells were plated for each time point given in parenthesis: 4 million (24 h), 1 million (48 h), and 0.3 million (72 h). Two mL of medium were removed from each plate and replaced with 2 mL of FUDR solution at a final concentration of 0, 10, 200, or 1000 nM in 10 mL. […]
# Pure DNA pellets were dissolved in 200 μL 1×UDG buffer. […] DNA concentrations were measured and adjusted to a maximum of 300 μg/mL. Aliquots (125 μL) of the samples were added to a black, clear-bottom 96 well plate (Corning) and analyzed with 760 nm excitation and emission scan of 790-847 nm with a 3 nm step size. Integrated fluorescence intensities were adjusted to DNA concentration and normalized to the FUDR untreated KD+UDG sample.
Compound,dose-response and overall efficacy in SSB assay (AP DNA),Stokes shift [1],λabs max [1],λem max [1],also measured
"CN(C)c1cccc2c(S(=O)(=O)NOCCCON)cccc12 [DansylMX, N-(3-(aminooxy)propoxy)-5-(dimethylamino)naphthalene-1-sulfonamide]",unacceptable dose-response,200 nm,340 nm,540 nm,overall reduction in SSB activity (AP DNA): ca. 60%
"NOCCCOc1ccc2cc(-c3ccc([N+](=O)[O-])cc3)c(=O)oc2c1 [NpCMX, 7-(3-(aminooxy)propoxy)-3-(4-nitrophenyl)-2H-chromen-2-one]",superior to the other probes assayed in dose-response and overall efficacy,185 nm,365 nm,550 nm,–
"CC1(C)C(/C=C/C=C/C=C/C=C2\N(CCCCS(=O)(=O)O)c3ccc4ccccc4c3C2(C)C)=[N+](CCCCS(=O)(=O)[O-])c2ccc3ccccc3c21 [ICG, indocyanine green]",–,–,–,–,fluorescence quantum yield Φ of the standard [2]: 0.132; fluorescence quantum yield of the standard [3]: 0.132
"NOCCCOc1ccc2cc(-c3ccc(N)cc3)c(=O)oc2c1 [ACMX, 7-(3-(aminooxy)propoxy)-3-(4-aminophenyl)-2H-chromen-2-one]",–,80 nm,370 nm,450 nm,aqueous solubility (Aqueous solubility): poor aqueous solubility
"CON [MX, methoxyamine]",–,–,–,–,"Cy7MX fluorescent intensity after pretreatment (blocking) [4]: significantly reduced; ED50 of Cy7MX, excess of competitor ([5]; 1 h at 37° C., constant Cy7MX): 3000 × excess; ED50, molar ratio of probe to Cy7MX ([5]; calf thymus DNA heat/acid 45 min, FIG. 13): 3000 fold excess"
"CCCN1/C(=C/C=C(/C=C/C2=[N+](CCC)c3ccccc3C2(C)C)c2ccc(C(=O)NCCCON)cn2)C(C)(C)c2ccccc21 [Cy5MX, 2-((1E,3Z)-3-(5-((3-(aminooxy)propyl)carbamoyl)pyridin-2-yl)-5-((E)-3,3-dimethyl-1-propylindolin-2-ylidene)penta-1,3-dien-1-yl)-3,3-dimethyl-1-propyl-3H-indol-1-ium 2,2,2-trifluoroacetate]",acceptable dose-response and overall efficacy,20 nm,640 nm,660 nm,–
"O=c1[nH]c(=O)n([C@H]2C[C@H](O)[C@@H](CO)O2)cc1F [FUDR, 5-fluoro-20-deoxyuridine]",–,–,–,–,increase in Cy7MX fluorescence intensity (AP sites) (DLD1 cells): ~9 fold
"Cc1cc(=O)oc2cc(OCCCON)ccc12 [MCMX, 7-(3-(aminooxy)propoxy)-4-methyl-2H-chromen-2-one]",superior to the other probes assayed in dose-response and overall efficacy,50 nm,325 nm,375 nm,–
"NNC(=S)Nc1ccc(-c2c3ccc(=O)cc-3oc3cc(O)ccc23)c(C(=O)O)c1 [Probe F422, reference compound]",unacceptable dose-response,–,–,–,overall reduction in SSB activity (AP DNA): ~90%
